# Entries after “also recorded” stand apart in the source; their conditions may differ. Where a SMILES comes first, the peptide text is derived from it. Bridges are numbered along the chain shown (N, C = ends). [ ]: non-standard residue; d: D form. AEEA = NCCOCCOCC(=O)O
# Columns and labels:
# fibrin clot = molecular target: T1, fibrin clot (Homo sapiens, UniProt P02671+P02675+P02679); assay: Plasma matrix interference on probe binding to fibrin clots; conditions: 20 µCi probe, 0.1 M PBS diluted 50% with fresh frozen human plasma, 0.5 mL, 37 °C, 30 min, triplicate
# T1 sequence (P02671 20-644 isoform P02671-2 limits assumed): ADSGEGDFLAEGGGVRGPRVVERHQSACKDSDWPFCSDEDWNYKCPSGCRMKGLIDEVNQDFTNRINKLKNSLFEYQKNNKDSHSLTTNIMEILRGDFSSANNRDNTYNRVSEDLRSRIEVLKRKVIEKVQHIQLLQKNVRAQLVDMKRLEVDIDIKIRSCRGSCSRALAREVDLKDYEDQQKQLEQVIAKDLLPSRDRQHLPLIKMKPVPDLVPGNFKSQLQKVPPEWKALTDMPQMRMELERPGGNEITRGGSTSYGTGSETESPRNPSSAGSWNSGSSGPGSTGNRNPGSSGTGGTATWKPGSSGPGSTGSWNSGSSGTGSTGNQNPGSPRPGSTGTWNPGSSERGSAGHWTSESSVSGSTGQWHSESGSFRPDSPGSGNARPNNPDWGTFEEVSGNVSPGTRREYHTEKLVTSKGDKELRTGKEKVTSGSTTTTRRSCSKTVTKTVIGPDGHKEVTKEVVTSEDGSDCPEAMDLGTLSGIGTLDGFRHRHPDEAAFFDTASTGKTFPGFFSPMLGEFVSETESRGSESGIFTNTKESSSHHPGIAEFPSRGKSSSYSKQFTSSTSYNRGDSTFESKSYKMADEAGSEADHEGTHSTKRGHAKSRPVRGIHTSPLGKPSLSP
# T1 sequence (P02675 45-491 limits assumed): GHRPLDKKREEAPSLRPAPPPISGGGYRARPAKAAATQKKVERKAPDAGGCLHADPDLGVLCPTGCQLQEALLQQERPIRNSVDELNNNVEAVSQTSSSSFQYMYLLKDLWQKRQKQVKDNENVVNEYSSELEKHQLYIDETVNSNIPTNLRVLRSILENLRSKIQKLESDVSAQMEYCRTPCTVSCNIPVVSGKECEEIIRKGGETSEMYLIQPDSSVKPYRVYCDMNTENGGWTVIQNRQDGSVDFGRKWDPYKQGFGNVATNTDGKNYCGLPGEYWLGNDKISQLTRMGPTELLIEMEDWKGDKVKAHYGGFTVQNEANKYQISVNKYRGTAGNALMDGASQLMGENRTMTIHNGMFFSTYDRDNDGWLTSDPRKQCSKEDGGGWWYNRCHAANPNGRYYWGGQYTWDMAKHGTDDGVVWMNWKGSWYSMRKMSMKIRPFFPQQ
# T1 sequence (P02679 27-437 isoform P02679-2 limits assumed): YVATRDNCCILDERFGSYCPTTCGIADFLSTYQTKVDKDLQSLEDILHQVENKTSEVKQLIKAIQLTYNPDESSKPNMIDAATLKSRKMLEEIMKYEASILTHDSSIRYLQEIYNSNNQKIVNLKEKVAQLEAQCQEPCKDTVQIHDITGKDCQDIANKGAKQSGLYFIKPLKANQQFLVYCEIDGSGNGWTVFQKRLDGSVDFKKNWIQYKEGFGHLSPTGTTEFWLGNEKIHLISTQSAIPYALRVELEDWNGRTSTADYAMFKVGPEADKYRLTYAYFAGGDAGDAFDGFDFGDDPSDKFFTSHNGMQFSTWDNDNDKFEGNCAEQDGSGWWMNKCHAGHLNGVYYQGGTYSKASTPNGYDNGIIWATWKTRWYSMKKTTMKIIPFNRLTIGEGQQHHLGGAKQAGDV
# [1] = Organ biodistribution in mice at 180 min; assay type: in vivo; conditions: 180 min after tail vein injection, n=3/treatment
smiles,measurement,setting,value
"CC[C@H](C)[C@H](NC(=O)[C@H](Cc1c[nH]c2ccccc12)NC(=O)[C@@H]1CSSC[C@H](NC(=O)[C@H](CCC(=O)O)NC(=O)[C@H](Cc2c[nH]c3ccccc23)NC(=O)[C@H](CCC(N)=O)NC(=O)COCCOCCNC(=O)[C@H](CCC(=O)O)NC(=O)[C@H](Cc2c[nH]cn2)NC(=O)[C@@H](N)Cc2c[nH]cn2)C(=O)N2CCC[C@H]2C(=O)N[C@@H](Cc2ccc(O)cc2)C(=O)NCC(=O)N[C@@H](CC(C)C)C(=O)N1)C(=O)N[C@@H](CCC(N)=O)C(=O)O [^99mTc-F1A, metal not drawn] (H-HHE[AEEA]QWECPYGLCWIQ-OH; disulfide 8-13)",binding to fibrin clots in the presence of human plasma compared with PBS alone,fibrin clot,interfered; also recorded: dramatically reduced; also recorded: severely compromised
same,"organ accumulation (lung, liver, spleen)",[1],"negligible liver or spleen biodistribution; also recorded: neither probe accumulating substantially in the lung, liver or spleen"

# Reference: article PMC5817118 (Theranostics, 2018)
